According to ChEMBL document CHEMBL1201862, “PubChem BioAssay data set” (2004):
Activity calls are given as the source filed them.

What was measured:
[1] = target: T1, Estrogen receptor beta (Homo sapiens, UniProt Q92731); assay: blockers of SRC-3 recruitment to ERβ – biochemical, ELISA, streptavidin-HRP readout, orthogonal assay, confirmation (AID 1060)
[2] = target: T1, Estrogen receptor beta
[3] = target: T2, Replicative DNA helicase DnaB (Mycobacterium tuberculosis, UniProt P9WMR3); assay: DnaB intein splicing inhibitors, dose response, biochemical, cell-free fluorescence (AID 449749); type: functional
T2 sequence (P9WMR3 whole entry): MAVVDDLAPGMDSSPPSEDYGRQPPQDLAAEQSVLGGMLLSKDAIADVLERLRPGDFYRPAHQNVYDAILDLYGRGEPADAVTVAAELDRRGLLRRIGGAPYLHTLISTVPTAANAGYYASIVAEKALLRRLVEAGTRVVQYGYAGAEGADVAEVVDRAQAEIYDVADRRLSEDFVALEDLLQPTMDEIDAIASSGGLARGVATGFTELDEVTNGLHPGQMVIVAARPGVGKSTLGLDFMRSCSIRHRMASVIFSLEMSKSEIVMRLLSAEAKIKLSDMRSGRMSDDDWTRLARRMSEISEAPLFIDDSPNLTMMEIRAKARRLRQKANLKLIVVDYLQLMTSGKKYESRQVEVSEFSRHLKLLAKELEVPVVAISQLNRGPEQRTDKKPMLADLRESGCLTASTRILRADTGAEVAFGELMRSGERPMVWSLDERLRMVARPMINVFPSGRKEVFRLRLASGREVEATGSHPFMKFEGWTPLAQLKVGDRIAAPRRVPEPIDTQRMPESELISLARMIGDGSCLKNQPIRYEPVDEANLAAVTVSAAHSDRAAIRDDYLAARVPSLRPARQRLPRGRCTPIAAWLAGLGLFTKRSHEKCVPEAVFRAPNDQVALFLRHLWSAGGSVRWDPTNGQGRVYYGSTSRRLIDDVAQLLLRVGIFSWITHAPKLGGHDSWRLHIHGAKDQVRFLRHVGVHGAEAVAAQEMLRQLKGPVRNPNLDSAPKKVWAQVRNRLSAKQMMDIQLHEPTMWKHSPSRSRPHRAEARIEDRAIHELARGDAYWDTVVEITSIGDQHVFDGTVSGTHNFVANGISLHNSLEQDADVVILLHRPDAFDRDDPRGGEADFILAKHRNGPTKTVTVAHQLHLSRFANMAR

[4] = target: T3, Protein RecA (Mycobacterium tuberculosis, UniProt P9WHJ3); assay: Fluorescence Cell-Free Homogeneous Dose Retest to Identify Inhibitors of RecA-Intein Splicing Activity. [Related pubchem assays (depositor defined):AID2097, AID2223, AID489010, AID492950]; type: functional
T3 sequence (P9WHJ3 whole entry): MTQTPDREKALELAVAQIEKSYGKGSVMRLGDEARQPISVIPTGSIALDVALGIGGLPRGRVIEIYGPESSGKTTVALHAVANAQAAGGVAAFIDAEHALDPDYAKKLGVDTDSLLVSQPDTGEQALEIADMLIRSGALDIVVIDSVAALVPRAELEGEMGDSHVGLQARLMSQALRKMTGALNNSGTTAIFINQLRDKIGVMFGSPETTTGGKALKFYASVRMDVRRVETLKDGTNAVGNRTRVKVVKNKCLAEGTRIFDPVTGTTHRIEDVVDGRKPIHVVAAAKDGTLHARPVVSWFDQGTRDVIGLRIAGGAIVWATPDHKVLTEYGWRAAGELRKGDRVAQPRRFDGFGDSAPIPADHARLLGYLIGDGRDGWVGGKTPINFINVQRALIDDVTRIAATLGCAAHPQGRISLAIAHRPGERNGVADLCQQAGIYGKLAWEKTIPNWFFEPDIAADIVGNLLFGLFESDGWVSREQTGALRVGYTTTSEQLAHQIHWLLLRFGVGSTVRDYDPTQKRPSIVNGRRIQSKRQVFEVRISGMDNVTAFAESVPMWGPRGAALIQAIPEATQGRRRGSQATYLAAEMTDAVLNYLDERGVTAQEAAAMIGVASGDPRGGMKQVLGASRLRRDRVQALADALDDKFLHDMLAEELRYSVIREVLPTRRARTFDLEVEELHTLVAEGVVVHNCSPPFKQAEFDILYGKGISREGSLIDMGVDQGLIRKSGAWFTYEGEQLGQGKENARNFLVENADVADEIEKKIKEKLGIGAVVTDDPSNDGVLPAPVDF

[5] = target: Beta-galactosidase (Escherichia coli, UniProt Q8VNN2); assay: Dose response counterscreen for EBI2 assay utilizing the enzyme, b-galactosidase.; type: functional
[6] = target: T4, Mannose-6-phosphate isomerase (Homo sapiens, UniProt P34949); assay: MPI inhibition at elevated mannose 6-phosphate – biochemical, fluorescence intensity, high mannose 6-phosphate, primary screen (AID 1220)
T4 sequence (P34949 whole entry): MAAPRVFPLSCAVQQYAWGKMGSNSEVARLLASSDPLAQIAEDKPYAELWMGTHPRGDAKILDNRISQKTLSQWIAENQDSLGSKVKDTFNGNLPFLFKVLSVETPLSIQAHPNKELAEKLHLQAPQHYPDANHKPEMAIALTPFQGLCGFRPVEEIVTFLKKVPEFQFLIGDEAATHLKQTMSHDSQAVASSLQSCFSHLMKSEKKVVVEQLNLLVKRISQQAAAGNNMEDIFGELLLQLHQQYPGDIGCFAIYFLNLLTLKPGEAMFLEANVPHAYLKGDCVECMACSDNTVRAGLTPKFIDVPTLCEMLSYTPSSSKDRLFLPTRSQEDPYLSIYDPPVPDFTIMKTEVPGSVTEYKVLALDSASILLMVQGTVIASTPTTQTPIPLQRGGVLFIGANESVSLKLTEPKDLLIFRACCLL

[7] = test system: Vero; assay: viability of Vero cells under compound – cytotoxicity control for flavivirus capping enzyme inhibitors (AID 588742); type: functional; conditions: Chlorocebus sabaeus
[8] = HEK-293T cell viability reduction – luminescence, B-cell screen hits, cytotoxicity control for BCR NF-kB inhibitor project, dose response (AID 489021); type: functional, cell-based;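 also: HEK-293T cells carrying an NF-kB luciferase reporter; cells exposed to compound for about 14 hours before viability readout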
[9] = target: T5, Polyadenylate-binding protein 1 (Homo sapiens, UniProt P11940); assay: MLLE binding blockers, Cy5 peptide tracer – biochemical, fluorescence polarization, Cy5-PAM2 peptide, secondary, miRNA deadenylation inhibitor project, dose response (AID 602260); type: functional; conditions: read-out: IC50_Mean
[10] = target: T5, Polyadenylate-binding protein 1; assay: MLLE domain peptide-binding blockers, IC50 – biochemical, fluorescence polarization, FITC-PAM2 peptide, dose response (AID 602259); type: functional; conditions: read-out: IC50_Mean
[11] = Luminescence Cell-Based Dose Confirmation HTS to Identify Activators of 5'UTR Stem-Loop Driven Alpha-Synuclein mRNA Translation in H4 Neuroglioblastoma Cells. [Related pubchem assays: 1829 (Project Summary), 1814 (Primary HTS)]; type: functional
[12] = Luminescence Cell-Based Dose Response HTS to Identify Activators of Luciferase Translation or Activity in H4 […] Cells. [Related pubchem assays: 1829 (Project Summary), 1814 (Primary HTS)]; type: functional
[13] = test system: H4; assay: Luminescence Cell-Based Dose Response HTS to Identify Activators of 5'UTR Stem-Loop Driven Prion Protein mRNA Translation in H4 Neuroglioblastoma Cells. [Related pubchem assays: 1829 (Project Summary), 1814 (Primary HTS)]; type: functional; conditions: Homo sapiens
[14] = target: T6, Aminopeptidase N (Plasmodium falciparum FcB1/Columbia, UniProt O96935); assay: malaria alanyl aminopeptidase activity blockers – biochemical, fluorogenic H-Leu-NHMec substrate, 1536-well (AID 1445); parameters: species or system Plasmodium falciparum 3D7, 3D7
T6 sequence (O96935 whole entry): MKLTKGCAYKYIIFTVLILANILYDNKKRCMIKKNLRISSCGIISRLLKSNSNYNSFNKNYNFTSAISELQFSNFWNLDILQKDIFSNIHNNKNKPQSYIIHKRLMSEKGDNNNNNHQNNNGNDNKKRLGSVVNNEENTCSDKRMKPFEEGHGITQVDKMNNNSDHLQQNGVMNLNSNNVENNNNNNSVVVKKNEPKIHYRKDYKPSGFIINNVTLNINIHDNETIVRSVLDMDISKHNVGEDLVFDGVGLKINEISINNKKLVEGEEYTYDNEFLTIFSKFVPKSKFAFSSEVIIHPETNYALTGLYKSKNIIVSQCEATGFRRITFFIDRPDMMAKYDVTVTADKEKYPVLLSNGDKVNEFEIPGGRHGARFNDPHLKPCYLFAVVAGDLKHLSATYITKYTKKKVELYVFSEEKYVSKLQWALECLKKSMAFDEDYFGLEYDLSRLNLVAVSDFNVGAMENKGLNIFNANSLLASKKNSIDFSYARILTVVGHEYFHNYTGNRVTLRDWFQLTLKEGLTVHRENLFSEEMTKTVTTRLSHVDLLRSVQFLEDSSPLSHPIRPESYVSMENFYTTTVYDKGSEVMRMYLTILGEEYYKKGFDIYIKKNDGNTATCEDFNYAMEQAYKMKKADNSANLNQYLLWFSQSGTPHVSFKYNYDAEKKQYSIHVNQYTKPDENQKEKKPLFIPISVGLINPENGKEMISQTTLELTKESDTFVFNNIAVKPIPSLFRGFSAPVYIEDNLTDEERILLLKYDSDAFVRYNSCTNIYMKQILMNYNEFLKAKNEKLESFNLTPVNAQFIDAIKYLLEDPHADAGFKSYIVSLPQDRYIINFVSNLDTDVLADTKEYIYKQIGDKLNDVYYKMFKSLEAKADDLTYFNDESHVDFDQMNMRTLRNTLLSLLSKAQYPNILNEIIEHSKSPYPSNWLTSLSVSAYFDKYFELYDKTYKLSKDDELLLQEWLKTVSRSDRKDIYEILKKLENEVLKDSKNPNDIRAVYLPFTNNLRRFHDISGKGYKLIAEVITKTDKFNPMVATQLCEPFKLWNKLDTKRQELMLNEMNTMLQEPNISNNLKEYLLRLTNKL

T1 sequence (Q92731 whole entry): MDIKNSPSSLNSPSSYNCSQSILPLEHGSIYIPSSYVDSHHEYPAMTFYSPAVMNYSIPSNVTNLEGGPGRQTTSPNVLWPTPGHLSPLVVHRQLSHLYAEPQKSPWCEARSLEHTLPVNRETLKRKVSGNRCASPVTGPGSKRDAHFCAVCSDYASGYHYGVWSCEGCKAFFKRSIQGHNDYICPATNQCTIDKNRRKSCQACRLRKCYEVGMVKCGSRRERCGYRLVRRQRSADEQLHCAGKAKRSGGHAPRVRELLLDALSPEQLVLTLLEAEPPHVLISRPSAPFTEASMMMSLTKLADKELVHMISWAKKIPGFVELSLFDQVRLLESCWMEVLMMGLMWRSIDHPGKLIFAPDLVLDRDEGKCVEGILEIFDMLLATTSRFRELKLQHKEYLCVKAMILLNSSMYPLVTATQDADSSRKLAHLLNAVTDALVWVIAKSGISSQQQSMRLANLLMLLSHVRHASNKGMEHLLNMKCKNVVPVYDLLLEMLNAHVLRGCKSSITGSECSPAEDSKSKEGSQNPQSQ
T5 sequence (P11940 whole entry, the tested form may be a part): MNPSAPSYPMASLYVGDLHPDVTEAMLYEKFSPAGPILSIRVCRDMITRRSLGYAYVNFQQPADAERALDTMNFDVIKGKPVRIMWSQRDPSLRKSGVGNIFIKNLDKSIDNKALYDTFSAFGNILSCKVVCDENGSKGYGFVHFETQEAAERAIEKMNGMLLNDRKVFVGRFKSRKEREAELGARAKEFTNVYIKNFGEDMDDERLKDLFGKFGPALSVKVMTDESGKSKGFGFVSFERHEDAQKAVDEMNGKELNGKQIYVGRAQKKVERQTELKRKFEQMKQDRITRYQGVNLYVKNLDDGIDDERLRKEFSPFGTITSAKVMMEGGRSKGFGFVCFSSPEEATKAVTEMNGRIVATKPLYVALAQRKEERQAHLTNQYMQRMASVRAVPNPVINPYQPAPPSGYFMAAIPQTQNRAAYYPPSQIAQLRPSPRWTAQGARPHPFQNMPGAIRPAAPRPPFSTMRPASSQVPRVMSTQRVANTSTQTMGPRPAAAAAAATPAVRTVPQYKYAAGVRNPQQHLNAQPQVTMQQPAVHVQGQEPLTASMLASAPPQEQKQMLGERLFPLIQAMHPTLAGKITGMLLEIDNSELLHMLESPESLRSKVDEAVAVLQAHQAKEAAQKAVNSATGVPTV
Chain of Beta-galactosidase (Q8VNN2 whole entry): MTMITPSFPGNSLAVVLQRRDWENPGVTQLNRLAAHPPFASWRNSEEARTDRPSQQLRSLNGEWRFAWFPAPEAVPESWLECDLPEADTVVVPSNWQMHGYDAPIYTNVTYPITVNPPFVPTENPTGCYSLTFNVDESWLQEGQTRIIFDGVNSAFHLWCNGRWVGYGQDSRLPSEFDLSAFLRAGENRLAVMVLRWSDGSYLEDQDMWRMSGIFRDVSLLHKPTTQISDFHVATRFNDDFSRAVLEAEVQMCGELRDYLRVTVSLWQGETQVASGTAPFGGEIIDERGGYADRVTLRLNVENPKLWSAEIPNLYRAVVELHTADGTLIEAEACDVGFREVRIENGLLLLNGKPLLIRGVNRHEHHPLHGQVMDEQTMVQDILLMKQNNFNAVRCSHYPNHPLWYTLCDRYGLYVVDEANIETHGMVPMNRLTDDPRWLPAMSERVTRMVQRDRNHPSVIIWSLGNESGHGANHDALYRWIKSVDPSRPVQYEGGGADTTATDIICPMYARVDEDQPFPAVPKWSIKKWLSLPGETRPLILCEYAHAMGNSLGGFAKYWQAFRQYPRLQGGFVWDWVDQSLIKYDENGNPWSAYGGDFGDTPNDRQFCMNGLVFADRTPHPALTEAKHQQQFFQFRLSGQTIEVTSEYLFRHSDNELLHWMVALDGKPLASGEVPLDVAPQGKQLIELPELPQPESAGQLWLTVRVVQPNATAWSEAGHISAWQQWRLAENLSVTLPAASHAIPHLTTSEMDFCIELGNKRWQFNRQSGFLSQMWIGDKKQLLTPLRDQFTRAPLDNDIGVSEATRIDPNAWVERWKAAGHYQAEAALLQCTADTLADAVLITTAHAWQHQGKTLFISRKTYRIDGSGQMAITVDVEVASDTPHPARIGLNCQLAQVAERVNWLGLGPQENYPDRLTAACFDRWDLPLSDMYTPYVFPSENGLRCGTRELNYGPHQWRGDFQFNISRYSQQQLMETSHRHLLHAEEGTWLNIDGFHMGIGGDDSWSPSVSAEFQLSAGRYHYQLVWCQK

NC(=O)c1ccsc1NC(=O)COC(=O)Cc1ccsc1
IC50 [1]: 1.84 µM (not active) | IC50 [2]: 5.55 µM (active)

CCCc1nn(-c2ccccc2)c2c1C(c1cccs1)C(C#N)=C(N)O2 (stereo unspecified)
AC50 [3]: 12.6 µM (active) | EC50 [4]: 3.58 µM (active) | IC50 [5]: > 80 µM (inactive)

COc1cc(/C=N/NC(=O)c2cc3ccccc3cc2O)ccc1OCCN1CCCCC1
IC50 [6]: > 50 µM (not active) | CC50 [7]: > 40 µM (active)

Cc1ccc(-c2nsc3c(N4CCC(C(N)=O)CC4)ncnc23)cc1
IC50 [8]: > 80 µM (inactive)

CCOC(=O)c1c(-c2cccs2)csc1N
IC50 [6]: > 50 µM (not active)

CCOC(=O)COc1ccc2c(C#N)c3ccccn3c2c1
IC50 [6]: > 50 µM (not active) | IC50 [9]: > 66 µM (inactive) | IC50 [10]: > 66 µM (inactive)

N#Cc1nc(/C=C/c2ccccc2)oc1NCCCN1CCOCC1
EC50 [11]: 22.1 µM (active) | EC50 [12]: 7.23 µM (active) | EC50 [13]: 38 µM (active) | IC50 [14]: 39.2 µM (active)
